Measurements reported in PubChem BioAssay (NCI).
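Results reflect a 48-hour exposure of cells in 96-well plates to compound at five concentrations. Definition used: TGI = concentration required for complete inhibition of growth.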

Assays:
Assay in all cases: NCI anticancer screen, dose series, 48 h
786-0 renal = system: 786-0 renal
A498 renal = system: A498 renal
A549 NSCLC = system: A549 NSCLC
ACHN renal = system: ACHN renal
BT-549 breast = system: BT-549 breast
CAKI-1 renal = system: CAKI-1 renal
CCRF-CEM leukemia = system: CCRF-CEM leukemia
COLO 205 colon = system: COLO 205 colon
DU-145 prostate = system: DU-145 prostate
EKVX NSCLC = system: EKVX NSCLC
HCC-2998 colon = system: HCC-2998 colon
HCT-116 colon = system: HCT-116 colon
HCT-15 colon = system: HCT-15 colon
HL-60(TB) leukemia = system: HL-60(TB) leukemia
HOP-62 NSCLC = system: HOP-62 NSCLC
HOP-92 NSCLC = system: HOP-92 NSCLC
HS 578T breast = system: HS 578T breast
HT29 colon = system: HT29 colon
IGROV1 ovarian = system: IGROV1 ovarian
K-562 leukemia = system: K-562 leukemia
KM12 colon = system: KM12 colon
LOX IMVI melanoma = system: LOX IMVI melanoma
M14 melanoma = system: M14 melanoma
MALME-3M melanoma = system: MALME-3M melanoma
MCF7 breast = system: MCF7 breast
MDA-MB-231 breast = system: MDA-MB-231 breast
MDA-MB-435 = system: MDA-MB-435
MDA-N = system: MDA-N
MOLT-4 leukemia = system: MOLT-4 leukemia
NCI-H226 lung = system: NCI-H226 lung
NCI-H23 lung = system: NCI-H23 lung
NCI-H460 lung = system: NCI-H460 lung
NCI-H522 lung = system: NCI-H522 lung
NCI/ADR-RES ovarian = system: NCI/ADR-RES ovarian
OVCAR-3 ovarian = system: OVCAR-3 ovarian
OVCAR-4 ovarian = system: OVCAR-4 ovarian
OVCAR-5 ovarian = system: OVCAR-5 ovarian
OVCAR-8 ovarian = system: OVCAR-8 ovarian
PC-3 prostate = system: PC-3 prostate
RPMI-8226 leukemia = system: RPMI-8226 leukemia
RXF 393 renal = system: RXF 393 renal
SF-268 CNS = system: SF-268 CNS
SF-295 CNS = system: SF-295 CNS
SF-539 CNS = system: SF-539 CNS
SK-MEL-2 melanoma = system: SK-MEL-2 melanoma
SK-MEL-28 melanoma = system: SK-MEL-28 melanoma
SK-MEL-5 melanoma = system: SK-MEL-5 melanoma
SK-OV-3 ovarian = system: SK-OV-3 ovarian
SN12C renal = system: SN12C renal
SNB-19 CNS = system: SNB-19 CNS
SNB-75 CNS = system: SNB-75 CNS
SR leukemia = system: SR leukemia
SW-620 colon = system: SW-620 colon
T-47D breast = system: T-47D breast
TK-10 renal = system: TK-10 renal
U251 CNS = system: U251 CNS
UACC-257 melanoma = system: UACC-257 melanoma
UACC-62 melanoma = system: UACC-62 melanoma
UO-31 renal = system: UO-31 renal

`ClCCCSSCCCCl` showed a TGI (786-0 renal) greater than 100 µM, a TGI (A498 renal) greater than 100 µM and a TGI (A549 NSCLC) greater than 100 µM. It also gave a TGI (ACHN renal) greater than 100 µM, a TGI (BT-549 breast) of 57.9 µM and a TGI (CAKI-1 renal) greater than 100 µM. The TGI (CCRF-CEM leukemia) was greater than 43.9 µM, the TGI (COLO 205 colon) was greater than 72.5 µM and the TGI (DU-145 prostate) was greater than 100 µM. For the same compound, the TGI (EKVX NSCLC) was greater than 100 µM, the TGI (HCC-2998 colon) was greater than 88.2 µM and the TGI (HCT-116 colon) was greater than 90.8 µM. For the same compound, the TGI (HCT-15 colon) was 57.7 µM, the TGI (HL-60(TB) leukemia) was 16 µM and the TGI (HOP-62 NSCLC) was greater than 100 µM. The TGI (HOP-92 NSCLC) was greater than 72.8 µM, the TGI (HS 578T breast) was 64.9 µM and the TGI (HT29 colon) was greater than 69.1 µM. For the same compound, the TGI (IGROV1 ovarian) was greater than 100 µM, the TGI (K-562 leukemia) was greater than 100 µM and the TGI (KM12 colon) was greater than 95.1 µM. For the same compound, the TGI (LOX IMVI melanoma) was greater than 81.9 µM, the TGI (M14 melanoma) was greater than 100 µM and the TGI (MALME-3M melanoma) was greater than 100 µM. For the same compound, the TGI (MCF7 breast) was 97.6 µM, the TGI (MDA-MB-231 breast) was greater than 80.2 µM and the TGI (MDA-MB-435) was greater than 60.5 µM. The TGI (MDA-N) was 49.7 µM, the TGI (MOLT-4 leukemia) was 7.42 µM and the TGI (NCI-H226 lung) was greater than 100 µM. It also gave a TGI (NCI-H23 lung) greater than 100 µM, a TGI (NCI-H460 lung) greater than 100 µM and a TGI (NCI-H522 lung) of 65.6 µM. It also gave a TGI (NCI/ADR-RES ovarian) greater than 78 µM, a TGI (OVCAR-3 ovarian) of 97.1 µM and a TGI (OVCAR-4 ovarian) greater than 90.7 µM. It also gave a TGI (OVCAR-5 ovarian) greater than 100 µM, a TGI (OVCAR-8 ovarian) greater than 75.8 µM and a TGI (PC-3 prostate) of 85.5 µM. The TGI (RPMI-8226 leukemia) was greater than 100 µM, the TGI (RXF 393 renal) was greater than 100 µM and the TGI (SF-268 CNS) was greater than 100 µM. The TGI (SF-295 CNS) was greater than 100 µM, the TGI (SF-539 CNS) was 48.8 µM and the TGI (SK-MEL-2 melanoma) was greater than 100 µM. For the same compound, the TGI (SK-MEL-28 melanoma) was greater than 100 µM, the TGI (SK-MEL-5 melanoma) was greater than 100 µM and the TGI (SK-OV-3 ovarian) was greater than 100 µM. The TGI (SN12C renal) was greater than 95.1 µM, the TGI (SNB-19 CNS) was greater than 100 µM and the TGI (SNB-75 CNS) was greater than 100 µM. It also gave a TGI (SR leukemia) greater than 25.8 µM, a TGI (SW-620 colon) greater than 100 µM and a TGI (T-47D breast) greater than 100 µM. The TGI (TK-10 renal) was greater than 100 µM, the TGI (U251 CNS) was greater than 100 µM and the TGI (UACC-257 melanoma) was greater than 100 µM. It also gave a TGI (UACC-62 melanoma) greater than 100 µM and a TGI (UO-31 renal) greater than 100 µM.
`COc1cc2c(NCCCCCO)ncnc2c(OC)c1OC` showed a TGI (786-0 renal) greater than 100 µM, a TGI (A498 renal) greater than 100 µM and a TGI (A549 NSCLC) greater than 100 µM. For the same compound, the TGI (ACHN renal) was greater than 100 µM, the TGI (BT-549 breast) was greater than 100 µM and the TGI (CAKI-1 renal) was greater than 100 µM. For the same compound, the TGI (CCRF-CEM leukemia) was greater than 100 µM, the TGI (COLO 205 colon) was greater than 100 µM and the TGI (DU-145 prostate) was greater than 100 µM. It also gave a TGI (EKVX NSCLC) greater than 100 µM, a TGI (HCC-2998 colon) greater than 100 µM and a TGI (HCT-116 colon) greater than 100 µM. The TGI (HCT-15 colon) was greater than 100 µM, the TGI (HL-60(TB) leukemia) was greater than 100 µM and the TGI (HOP-62 NSCLC) was greater than 100 µM. For the same compound, the TGI (HOP-92 NSCLC) was greater than 100 µM, the TGI (HS 578T breast) was greater than 100 µM and the TGI (HT29 colon) was greater than 100 µM. For the same compound, the TGI (IGROV1 ovarian) was greater than 100 µM, the TGI (K-562 leukemia) was greater than 100 µM and the TGI (KM12 colon) was greater than 100 µM. The TGI (LOX IMVI melanoma) was greater than 100 µM, the TGI (M14 melanoma) was greater than 100 µM and the TGI (MALME-3M melanoma) was greater than 100 µM. It also gave a TGI (MCF7 breast) greater than 100 µM, a TGI (MDA-MB-231 breast) greater than 100 µM and a TGI (MDA-MB-435) greater than 100 µM. The TGI (MDA-N) was greater than 100 µM, the TGI (MOLT-4 leukemia) was greater than 100 µM and the TGI (NCI-H226 lung) was greater than 100 µM. For the same compound, the TGI (NCI-H23 lung) was greater than 100 µM, the TGI (NCI-H460 lung) was greater than 100 µM and the TGI (NCI-H522 lung) was greater than 100 µM. For the same compound, the TGI (NCI/ADR-RES ovarian) was greater than 100 µM, the TGI (OVCAR-3 ovarian) was greater than 100 µM and the TGI (OVCAR-4 ovarian) was greater than 100 µM. The TGI (OVCAR-5 ovarian) was greater than 100 µM, the TGI (OVCAR-8 ovarian) was greater than 100 µM and the TGI (PC-3 prostate) was greater than 100 µM. For the same compound, the TGI (RPMI-8226 leukemia) was greater than 100 µM, the TGI (RXF 393 renal) was greater than 100 µM and the TGI (SF-268 CNS) was greater than 100 µM. The TGI (SF-295 CNS) was greater than 100 µM, the TGI (SF-539 CNS) was greater than 100 µM and the TGI (SK-MEL-2 melanoma) was greater than 100 µM. The TGI (SK-MEL-28 melanoma) was greater than 100 µM, the TGI (SK-MEL-5 melanoma) was greater than 100 µM and the TGI (SK-OV-3 ovarian) was greater than 100 µM. It also gave a TGI (SN12C renal) greater than 100 µM, a TGI (SNB-19 CNS) greater than 100 µM and a TGI (SNB-75 CNS) greater than 100 µM. The TGI (SR leukemia) was greater than 100 µM, the TGI (SW-620 colon) was greater than 100 µM and the TGI (T-47D breast) was greater than 100 µM. For the same compound, the TGI (TK-10 renal) was greater than 100 µM, the TGI (U251 CNS) was greater than 100 µM and the TGI (UACC-257 melanoma) was greater than 100 µM. For the same compound, the TGI (UACC-62 melanoma) was greater than 100 µM and the TGI (UO-31 renal) was greater than 100 µM.
Work on `COC(=O)C12CCC(C)(C)CC1C1=CCC3C4(C)CC(O)C(O)C(C)(C(=O)OC)C4CCC3(C)C1(CO)CC2` (centres undefined) yielded a TGI (786-0 renal) of 23.3 µM, a TGI (A498 renal) of 33.2 µM and a TGI (A549 NSCLC) of 29 µM. It also gave a TGI (ACHN renal) of 27.2 µM, a TGI (BT-549 breast) of 28.8 µM and a TGI (CAKI-1 renal) of 27.8 µM. For the same compound, the TGI (CCRF-CEM leukemia) was 80.2 µM, the TGI (COLO 205 colon) was 29.1 µM and the TGI (DU-145 prostate) was 29.1 µM. The TGI (EKVX NSCLC) was 44.1 µM, the TGI (HCC-2998 colon) was 27.2 µM and the TGI (HCT-116 colon) was 27.4 µM. For the same compound, the TGI (HCT-15 colon) was 29.1 µM, the TGI (HL-60(TB) leukemia) was greater than 100 µM and the TGI (HOP-62 NSCLC) was 32.2 µM. For the same compound, the TGI (HOP-92 NSCLC) was 29.1 µM, the TGI (HS 578T breast) was 28.2 µM and the TGI (HT29 colon) was 30.1 µM. The TGI (IGROV1 ovarian) was 35.2 µM, the TGI (K-562 leukemia) was greater than 100 µM and the TGI (KM12 colon) was 22.3 µM. It also gave a TGI (LOX IMVI melanoma) of 28.1 µM, a TGI (M14 melanoma) of 19.5 µM and a TGI (MCF7 breast) of 29.8 µM. It also gave a TGI (MDA-MB-231 breast) of 33.5 µM, a TGI (MDA-MB-435) of 32.4 µM and a TGI (MDA-N) of 26.3 µM. For the same compound, the TGI (MOLT-4 leukemia) was 34.4 µM, the TGI (NCI-H226 lung) was 38.5 µM and the TGI (NCI-H23 lung) was 32.2 µM. It also gave a TGI (NCI-H460 lung) of 31.5 µM, a TGI (NCI-H522 lung) of 35.2 µM and a TGI (NCI/ADR-RES ovarian) of 29.2 µM. The TGI (OVCAR-3 ovarian) was 31.5 µM, the TGI (OVCAR-4 ovarian) was 27.8 µM and the TGI (OVCAR-5 ovarian) was 31.8 µM. It also gave a TGI (OVCAR-8 ovarian) of 31.5 µM, a TGI (PC-3 prostate) of 22 µM and a TGI (RPMI-8226 leukemia) of 40.9 µM. The TGI (RXF 393 renal) was 19.5 µM, the TGI (SF-268 CNS) was 44.9 µM and the TGI (SF-295 CNS) was 28.8 µM. It also gave a TGI (SF-539 CNS) of 31.6 µM, a TGI (SK-MEL-2 melanoma) of 28.2 µM and a TGI (SK-MEL-5 melanoma) of 41.3 µM. For the same compound, the TGI (SK-OV-3 ovarian) was 31.3 µM, the TGI (SN12C renal) was 33.2 µM and the TGI (SNB-19 CNS) was 37 µM. It also gave a TGI (SNB-75 CNS) of 25.3 µM, a TGI (SR leukemia) of 31.4 µM and a TGI (SW-620 colon) of 27.5 µM. It also gave a TGI (T-47D breast) of 24 µM, a TGI (TK-10 renal) of 33.7 µM and a TGI (U251 CNS) of 39.8 µM. For the same compound, the TGI (UACC-257 melanoma) was 31.7 µM and the TGI (UACC-62 melanoma) was 28.9 µM.
